From PubChem BioAssay (NCI)
Values joined by “and” are separate entries in the source; they are usually repeats but may differ in a detail not shown here. Equal entries are not always repeated.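 Assay format: 96-well plates, 48-hour exposure. Here, GI50 denotes the concentration required for 50% inhibition of growth. TGI: total growth inhibition.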

Assays:
Assay in all cases: growth of human tumour cells (NCI), 48 h
NCI-H522 lung = test system: NCI-H522 lung
SR leukemia = test system: SR leukemia
UO-31 renal = test system: UO-31 renal
HCT-15 colon = test system: HCT-15 colon
OVCAR-4 ovarian = test system: OVCAR-4 ovarian
SF-539 CNS = test system: SF-539 CNS
HL-60(TB) leukemia = test system: HL-60(TB) leukemia
U251 CNS = test system: U251 CNS
NCI/ADR-RES ovarian = test system: NCI/ADR-RES ovarian
PC-3 prostate = test system: PC-3 prostate

Row | SMILES | TGI (NCI-H522 lung) | TGI (SR leukemia) | TGI (UO-31 renal) | TGI (HCT-15 colon) | TGI (OVCAR-4 ovarian) | TGI (SF-539 CNS) | TGI (HL-60(TB) leukemia) | TGI (U251 CNS) | GI50 (NCI/ADR-RES ovarian) | TGI (NCI/ADR-RES ovarian) | GI50 (NCI-H522 lung) | GI50 (SR leukemia) | GI50 (UO-31 renal) | GI50 (HCT-15 colon) | GI50 (OVCAR-4 ovarian) | GI50 (SF-539 CNS) | GI50 (HL-60(TB) leukemia) | GI50 (PC-3 prostate) | TGI (PC-3 prostate) | GI50 (U251 CNS)
1 | O=C1C(=O)N(c2ccc(Cl)cc2Cl)C(=O)C(=O)C1c1nc2ccccc2o1 | > 100 µM | > 100 µM | > 100 µM | > 100 µM | > 100 µM | > 100 µM | > 100 µM | > 100 µM |  |  |  |  |  |  |  |  |  |  |  | 
2 | NC1=NC(c2ccc(Cl)cc2)C2=C(N1)/C(=C/c1ccc(Cl)cc1)CCC2 (stereo not drawn) | 36.9 µM | 9.84 µM | 27.9 µM | 26.9 µM | 76.5 µM | > 78 µM | 45.8 µM | 12.2 µM | 12.2 µM | > 100 µM | 15.7 µM | 3.69 µM | 9.76 µM | 9.13 µM | 13.9 µM | 19.9 µM | 12.3 µM | 7.82 µM | 56.3 µM | 3.38 µM
3 | COc1ccc(/C=C\c2cc(OC)c(OC)c(OC)c2)cc1OC(=O)CCC(=O)O |  | > 100 µM | > 100 µM | > 100 µM | > 100 µM |  | < 0.0001 µM |  |  |  |  |  | < 0.0001 µM |  |  |  |  |  | > 100 µM | 
4 | C=C(c1ccc(C(=O)N(C)c2ccccc2N)cc1)C(C)N1C(=O)[C@H]2CCCN2C(=O)c2ccccc21 (stereo partly drawn) | > 100 µM | 74.9 µM | > 100 µM | > 100 µM | 41.2 µM | > 100 µM | 80.2 µM |  | 20.2 µM | > 100 µM | 17.7 µM | 18.7 µM | 53.4 µM | 46.5 µM | 2.91 µM | 42.3 µM | 20.2 µM | 26.2 µM | > 100 µM | 
5 | C=CC1CC12C(=O)C1OC2(C)C2C(=O)c3c(O)ccc(O)c3C(=O)C12 (stereo not drawn) | 16.8 µM |  | 25.6 µM | 5.05 µM | 25.6 µM | 14.8 µM | 3.79 µM | 12.6 µM | 3.76 µM | 12.1 µM | 6.23 µM |  | 7.83 µM | 2 µM | 7.84 µM | 4.5 µM | 1.19 µM | 4.72 µM | 15.3 µM | 4.3 µM
6 | CCSC1=C(C)N(C=NC(C)(C)C)CC1 | > 100 µM | > 100 µM | > 100 µM | > 100 µM | > 100 µM | > 100 µM | > 100 µM | > 100 µM |  |  |  |  |  |  |  |  |  |  |  | 
7 | COc1cc(-c2nc3sc4c(c3c(=O)[nH]2)CCCCCC4)cc(OC)c1OC | 9.46 µM | > 33.2 µM | > 33.2 µM | > 33.2 µM |  | 2.08 µM | 13 µM |  | 0.892 µM | > 33.2 µM | 0.887 µM | 0.776 µM | 2.07 µM | 0.649 µM |  | 0.673 µM | 1.36 µM | 1.5 µM | > 33.2 µM | 
8 | COc1cccc2c1C(=O)c1c(O)c3c(c(O)c1C2=O)C[C@@](O)(C(=O)CO)C[C@@H]3OC1C[C@H](N)[C@H](O)[C@H](C)O1 (stereo partly drawn) | 0.317 µM | 0.826 µM | 1.14 µM | > 50 µM | 2.9 µM | 0.528 µM | 0.593 µM | 2.25 µM |  |  | 0.0334 µM | 0.00558 µM | 0.152 µM | 0.906 µM | 0.133 µM | 0.0387 µM | 0.078 µM | 0.112 µM | 1.22 µM | 0.025 µM
9 | CCN(CCCl)CCCNc1c2ccccc2nc2ccc(OC)cc12 |  | 1.04 µM | 2060 µM | 1.86 µM |  |  |  |  |  |  | 103 µM |  |  |  | 360 µM | 421 µM | 175 µM |  |  | 387 µM
10 | C#Cc1c(C(N)=O)ncn1C1OC(COP(=O)(OCc2ccc([N+](=O)[O-])o2)N(C)CCCCCl)C(O)C1O (stereo not drawn) | 88.1 µM |  | > 100 µM | > 100 µM | > 100 µM | > 100 µM | > 100 µM | > 100 µM | 15.1 µM | > 100 µM | 3.78 µM |  | 34.8 µM | 31.3 µM | > 100 µM | 19.7 µM | > 100 µM | 53.5 µM | > 100 µM | 53.9 µM
11 | Cc1cc(NS(=O)(=O)c2ccc(NC(=O)c3cccc4c(Nc5ccc(S(=O)(=O)N=C(N)N)cc5)c5ccccc5nc34)cc2)no1 | > 100 µM | > 100 µM | > 100 µM | > 100 µM | > 100 µM | > 100 µM | > 100 µM | > 100 µM |  |  |  |  |  |  |  |  |  |  |  | 
12 | CCOC(=O)/C=C/C(C(=O)/C=C/c1ccc(O)c(OC)c1)=C(O)\C=C\c1ccc(O)c(OC)c1 | 36.4 µM | > 100 µM | 49.1 µM | 6.99 µM | 25.7 µM |  |  | 12.5 µM | 2.13 µM | 6.94 µM | 4.51 µM | 11 µM | 16.9 µM | 2.27 µM | 7.36 µM |  |  | 12.8 µM | > 100 µM | 0.613 µM
13 | COc1cc2c(cc1O)CC13CCC(=O)N1CCc1cc(OC)c(O)c-2c13 (stereo not drawn) |  | > 68.1 µM | > 68.1 µM | > 68.1 µM | > 68.1 µM | > 68.1 µM | > 68.1 µM |  |  |  |  |  |  |  |  |  |  |  |  | 
14 | CC(=O)OCC1OC(OC2CC3C(C)(C)C(O)CC[C@]3(C)C3CCC45CC4(CC[C@H]5C(C)CC(O)C4OC4(C)C)[C@]23C)C(O)C(O)C1O (stereo partly drawn) | 11.8 µM and 19 µM | 3.53 µM and 4.13 µM | 15.4 µM and 31.6 µM | 15.3 µM and 27.6 µM | 15.8 µM and 30.7 µM | 15.3 µM and 18.7 µM | 3.67 µM and 4.18 µM | 10.3 µM and 16.5 µM |  |  | 5.75 µM | 1.93 µM | 17.7 µM | 14.2 µM | 13.9 µM | 6.32 µM | 1.73 µM |  |  | 5.17 µM
15 | COc1ccc(-c2ccc(-c3ccc(-c4ccc(C(=N)N)cc4)s3)s2)cc1OC | 62.2 µM | 6 µM | 32.4 µM |  |  | 38.7 µM | 28.1 µM |  | 2.51 µM | 6.54 µM | 14.1 µM | 1.74 µM | 14.4 µM |  |  | 15.4 µM | 7.47 µM | 2.78 µM | 9.39 µM | 
16 | CCN(c1ccc(Br)cc1)c1c(Br)c(=O)nc2ccccn12 | > 100 µM | > 100 µM | > 100 µM | > 100 µM |  | > 100 µM |  | > 100 µM |  |  |  |  |  |  |  |  |  |  |  | 
17 | C=C1C(=O)O[C@H]2[C@H]1CC/C(COC(=O)NCCc1c[nH]c3ccc(OC)cc13)=C\CC[C@@]1(C)O[C@@H]21 | 2.75 µM | 9.33 µM | 2.77 µM | 2.45 µM | 5.09 µM | 4.01 µM |  | 15.9 µM | 7.57 µM | 29.2 µM | 1.18 µM | 1.02 µM | 1.46 µM | 1.14 µM | 1.69 µM | 1.78 µM |  | 1.99 µM | 4.6 µM | 4.3 µM
18 | CN1CC(C(=O)C2C(=O)c3ccccc3C2=O)C(=O)C(=O)C(C(=O)C2C(=O)c3ccccc3C2=O)C1 (stereo not drawn) | > 100 µM | > 100 µM | > 100 µM | > 100 µM |  | > 100 µM | > 100 µM | > 100 µM |  |  |  |  |  |  |  |  |  |  |  | 
19 | c1ccc2c(c1)[nH]c1cnc3c4cccnc4[nH]c3c12 |  | 48.7 µM | 33 µM | 31.9 µM | 32.6 µM | 44.7 µM | 35.5 µM |  |  |  |  |  |  |  |  |  |  |  |  | 
20 | Cc1c(C)[n+](=O)c(C)c(C)n1[O-] |  | > 100 µM | > 100 µM | > 100 µM | > 100 µM | > 100 µM |  | > 100 µM | > 100 µM | > 100 µM |  | > 100 µM | > 100 µM | > 100 µM | > 100 µM | > 100 µM |  | > 100 µM | > 100 µM | > 100 µM
21 | O=c1cc(-c2ccccc2)[nH]n1-c1nc2ccccc2[nH]1 | 17.6 µM | > 100 µM | 67.6 µM | > 100 µM |  | 27.1 µM | 29.1 µM |  | 3.68 µM | > 100 µM | 3.65 µM | 5.86 µM | 5.68 µM | 3.44 µM |  | 3.94 µM | 4.52 µM | 4.22 µM | 44.5 µM | 
22 | Cc1c2c[n+](C(C)C)ccc2c(C)c2c1[nH]c1ccccc12 | 11.4 µM |  | > 100 µM | > 100 µM | 15.4 µM | 16.4 µM | 19.2 µM | 15.2 µM | 56.5 µM | > 100 µM | 2.26 µM |  | 20.6 µM | 52.1 µM | 2.61 µM | 1.62 µM | 3.13 µM | 2.59 µM | 40.6 µM | 0.456 µM
23 | NC(=O)C(c1ccccc1)N1CCOCC1 (stereo not drawn) | > 100 µM | > 100 µM | > 100 µM | > 100 µM | > 100 µM | > 100 µM | > 100 µM | > 100 µM |  |  |  |  |  |  |  |  |  |  |  | 
24 | O=C(Cc1cccc(OC(F)(F)F)c1)Nc1ccc(CCCCc2nnc(NC(=O)Cc3ccccn3)s2)nn1 | 40.1 µM | > 100 µM | 28.9 µM | > 100 µM | 29 µM | 50.3 µM | > 100 µM |  | > 100 µM | > 100 µM | 12.2 µM | 33.7 µM | 2.85 µM | > 100 µM | 7.23 µM | 15.7 µM | 8.34 µM | 18.3 µM | > 100 µM | 
25 | O=C(C(=O)N1CC2C=CC1CC2)c1c[nH]c2ccccc12 (stereo not drawn) | > 100 µM | > 100 µM | > 100 µM | > 100 µM | > 100 µM | > 100 µM | > 100 µM | > 100 µM |  |  |  |  |  |  |  |  |  |  |  | 
26 | Fc1ccc(C2SCc3nc4ccccc4n32)cc1 (stereo not drawn) | 70.9 µM | 96.6 µM | 70.1 µM | > 100 µM | > 100 µM | > 100 µM | 71.8 µM | > 100 µM |  |  |  |  |  |  |  |  |  |  |  | 
